The results in this text go back to ChEMBL document CHEMBL1136464, “Array synthesis of novel lipodepsipeptide” (Bioorg Med Chem Lett, 2003).

Converted amounts (≈) assume the structure as drawn.

Data set [1] concerns Enterococcus faecium. Put plainly: Antibacterial activity against Enterococcus faecium ATCC 49452. The data set is classed as functional.
Data set [2] deals with Enterococcus faecalis. Put plainly: Antibacterial activity against Enterococcus faecalis ATCC 6569. The data set is classed as functional.
The subject of data set [3] is Staphylococcus aureus. As to the kind of experiment: Antibacterial activity against methicillin susceptible staphylococcus aureus ATCC 29213. The data set is classed as functional.
In data set [4] the test system is Staphylococcus aureus. As to the kind of experiment: Antibacterial activity against methicillin-resistant staphylococcus aureus ATCC 43300. The format is functional.
The nature of data set [5]: Vd in mice. The format is ADME, organism-based. The following applies: mouse, in vivo.
Data set [6] can be described thus: Total plasma clearance in mice. The following applies: mouse. The format is ADME, organism-based.
Data set [7] can be described thus: Half-life in mice. The format is ADME, organism-based. The following applies: mouse, in vivo.
The test system of data set [8] is Enterococcus faecium. Put plainly: Antibacterial activity against Enterococcus faecium ATCC 49452 at 0 % serum. The data set is classed as functional.
Data set [9] relates to Enterococcus faecium. Put plainly: Antibacterial activity against Enterococcus faecium ATCC 49452 at 10 % serum. The format is functional. The following applies: ATCC 49452, Serum.
Data set [10] has as its system Enterococcus faecalis. As to the kind of experiment: Antibacterial activity against Enterococcus faecalis ATCC 6569 at 0 % serum. The format is functional.
Data set [11] relates to Enterococcus faecalis. Put plainly: Antibacterial activity against Enterococcus faecalis ATCC 6569 at 10 % serum. The data set is classed as functional. The following applies: ATCC 6569, Serum.
The species entered for a further data set is Mus musculus. As to the kind of experiment: Protective dose against methicillin-resistant staphylococcus aureus ATCC 43300 was determined in mice. The following applies: read-out: PD50. The format is functional.
Data set [12] has as its system Staphylococcus aureus. Put plainly: Antibacterial activity against methicillin-resistant staphylococcus aureus ATCC 43300 at 10 % serum. The format is functional.
The subject of data set [13] is Staphylococcus aureus. As to the kind of experiment: Antibacterial activity against methicillin susceptible staphylococcus aureus ATCC 29213 at 0 % serum. The format is functional.
Data set [14] relates to Staphylococcus aureus. Put plainly: Antibacterial activity against methicillin susceptible staphylococcus aureus ATCC 29213 at 10 % serum. The data set is classed as functional.
Data set [15] relates to Staphylococcus aureus. Put plainly: Antibacterial activity against methicillin-resistant staphylococcus aureus ATCC 43300 at 0 % serum. The data set is classed as functional.
In data set [16] the test system is Enterococcus faecium. Put plainly: Antibacterial activity against Enterococcus faecium ATCC 49452 at 10 % serum in mice. The format is functional. The following applies: ATCC 49452, Serum.
In data set [17] the test system is Enterococcus faecalis. Put plainly: Antibacterial activity against Enterococcus faecalis ATCC 6569 at 0 % serum in mice. The format is functional.
Data set [18] relates to Enterococcus faecalis. As to the kind of experiment: Antibacterial activity against Enterococcus faecalis ATCC 6569 at 10 % serum in mice. The data set is classed as functional.
Data set [19] relates to Staphylococcus aureus. As to the kind of experiment: Antibacterial activity against methicillin-resistant staphylococcus aureus ATCC 43300 at 10 % serum in mice. The format is functional.
Data set [20] relates to Staphylococcus aureus. Put plainly: Antibacterial activity against methicillin-resistant staphylococcus aureus ATCC 43300 at 0 % serum in mice. The format is functional.
Data set [21] concerns Enterococcus faecium. Put plainly: Antibacterial activity against Enterococcus faecium ATCC 49452 at 0 % serum in mice. The format is functional.

For `CCCCCCCCCC(=O)N[C@@H](Cc1c[nH]c2ccccc12)C(=O)N[C@H](CC(N)=O)C(=O)N[C@@H](CCO)C(=O)N[C@@H]1C(=O)NCC(=O)N[C@@H](CCCNC(=O)C(N)Cc2c[nH]c3ccc(F)cc23)C(=O)N[C@@H](CC(=O)O)C(=O)N[C@H](C)C(=O)N[C@@H](CC(=O)O)C(=O)NCC(=O)N[C@H](CO)C(=O)N[C@@H]([C@H](C)CC(=O)O)C(=O)N[C@@H](CC(=O)c2ccccc2N)C(=O)O[C@@H]1C` (some centres not stated), the MIC (commonly the lowest concentration that inhibits growth of the organism) was 12.5 µg/mL (≈ 6.9 µM) in the data set with Enterococcus faecium [1] and 3.1 µg/mL (≈ 1.71 µM) in the data set on Enterococcus faecalis [2].

Take `CCCCCCCCCC(=O)N[C@@H](Cc1c[nH]c2ccccc12)C(=O)N[C@H](CC(N)=O)C(=O)N[C@@H](CCO)C(=O)N[C@@H]1C(=O)NCC(=O)N[C@@H](CCCNC(=O)c2c(N)cccc2F)C(=O)N[C@@H](CC(=O)O)C(=O)N[C@H](C)C(=O)N[C@@H](CC(=O)O)C(=O)NCC(=O)N[C@H](CO)C(=O)N[C@@H]([C@H](C)CC(=O)O)C(=O)N[C@@H](CC(=O)c2ccccc2N)C(=O)O[C@@H]1C`: the MIC against Enterococcus faecium [1] and against Enterococcus faecalis [2] was 3.1 µg/mL (≈ 1.78 µM) each time.

In the case of `CCCCCCCCCC(=O)N[C@@H](Cc1c[nH]c2ccccc12)C(=O)N[C@H](CC(N)=O)C(=O)N[C@@H](CCO)C(=O)N[C@@H]1C(=O)NCC(=O)N[C@@H](CCCNC(=O)c2ccccc2N)C(=O)N[C@@H](CC(=O)O)C(=O)N[C@H](C)C(=O)N[C@@H](CC(=O)O)C(=O)NCC(=O)N[C@H](CO)C(=O)N[C@@H]([C@H](C)CC(=O)O)C(=O)N[C@@H](CC(=O)c2ccccc2N)C(=O)O[C@@H]1C`, the MIC came out at 12.5 µg/mL (≈ 7.24 µM) against Enterococcus faecium [1], 3.1 µg/mL (≈ 1.8 µM) in the data set on Enterococcus faecalis [2], 1.56 µg/mL (≈ 0.904 µM) in the data set on Staphylococcus aureus [3] and 0.78 µg/mL (≈ 0.452 µM) against Staphylococcus aureus [4].

Consider `CCCCCCCCCC(=O)N[C@@H](Cc1c[nH]c2ccccc12)C(=O)N[C@H](CC(N)=O)C(=O)N[C@@H](CCO)C(=O)N[C@@H]1C(=O)NCC(=O)N[C@@H](CCCNC(=O)c2ccccc2)C(=O)N[C@@H](CC(=O)O)C(=O)N[C@H](C)C(=O)N[C@@H](CC(=O)O)C(=O)NCC(=O)N[C@H](CO)C(=O)N[C@@H]([C@H](C)CC(=O)O)C(=O)N[C@@H](CC(=O)c2ccccc2N)C(=O)O[C@@H]1C`, for which the MIC against Enterococcus faecium [1] is 25 µg/mL (≈ 14.6 µM); in the data set on Enterococcus faecalis [2], 25 µg/mL (≈ 14.6 µM); with Staphylococcus aureus [3], 12.5 µg/mL (≈ 7.31 µM); in the data set on Staphylococcus aureus [4], 6.25 µg/mL (≈ 3.65 µM).

Take `CCCCCCCCCC(=O)N[C@@H](Cc1c[nH]c2ccccc12)C(=O)N[C@H](CC(N)=O)C(=O)N[C@@H](CCO)C(=O)N[C@@H]1C(=O)NCC(=O)N[C@@H](CCCNC(=O)c2ccccc2S(=O)(=O)O)C(=O)N[C@@H](CC(=O)O)C(=O)N[C@H](C)C(=O)N[C@@H](CC(=O)O)C(=O)NCC(=O)N[C@H](CO)C(=O)N[C@@H]([C@H](C)CC(=O)O)C(=O)N[C@@H](CC(=O)c2ccccc2N)C(=O)O[C@@H]1C`: the MIC in the data set with Enterococcus faecium [1], in the data set with Enterococcus faecalis [2], with Staphylococcus aureus [3] and in the data set with Staphylococcus aureus [4] was 100 µg/mL (≈ 55.8 µM) in each case.

`CCCCCCCCCC(=O)N[C@@H](Cc1c[nH]c2ccccc12)C(=O)N[C@H](CC(N)=O)C(=O)N[C@@H](CC(=O)O)C(=O)N[C@@H]1C(=O)NCC(=O)N[C@@H](CCCNCc2ccc(-c3ccccc3)cc2)C(=O)N[C@@H](CC(=O)O)C(=O)N[C@H](C)C(=O)N[C@@H](CC(=O)O)C(=O)NCC(=O)N[C@H](CO)C(=O)N[C@@H]([C@H](C)CC(=O)O)C(=O)N[C@@H](CC(=O)c2ccccc2N)C(=O)O[C@@H]1C` [listing 1 of 2 here]: the Vd – broadly, a proportionality between amount in the body and measured concentration, not a real space – in data set [5] came out at 0.107 L/kg. In addition, the clearance (in general, the rate of elimination divided by the concentration) in [6] was 0.157 mL/min/kg. Moreover, in [7], the half-life (in general, the time needed for the level to fall by half in the phase considered) is 7.9 h.

For `CCCCCCCCCC(=O)N[C@@H](Cc1c[nH]c2ccccc12)C(=O)N[C@H](CC(N)=O)C(=O)N[C@@H](CC(=O)O)C(=O)N[C@@H]1C(=O)NCC(=O)N[C@@H](CCCNCc2ccc(-c3ccccc3)cc2)C(=O)N[C@@H](CC(=O)O)C(=O)N[C@H](C)C(=O)N[C@@H](CC(=O)O)C(=O)NCC(=O)N[C@H](CO)C(=O)N[C@@H]([C@H](C)CC(=O)O)C(=O)N[C@@H](CC(=O)c2ccccc2N)C(=O)O[C@@H]1C` [listing 2 of 2 here], the MIC against Enterococcus faecium [8] was 1.56 µg/mL (≈ 0.873 µM); with Enterococcus faecium [9], 25 µg/mL (≈ 14 µM); in the data set on Enterococcus faecalis [10], 1.56 µg/mL (≈ 0.873 µM); against Enterococcus faecalis [11], 12.5 µg/mL (≈ 7 µM); in the data set with Staphylococcus aureus [12] it was 1.56 µg/mL (≈ 0.873 µM); in the data set on Staphylococcus aureus [13], 0.39 µg/mL (≈ 0.218 µM). The values for the MIC against Staphylococcus aureus [14] and against Staphylococcus aureus [15] were 3.13 µg/mL (≈ 1.75 µM) and 0.2 µg/mL (≈ 0.112 µM), respectively. The ED50 in the data set listed under Mus musculus worked out at 1.04 mg/kg.

Regarding `CCCCCCCCCC(=O)N[C@@H](Cc1c[nH]c2ccccc12)C(=O)N[C@H](CC(N)=O)C(=O)N[C@@H](CCO)C(=O)N[C@@H]1C(=O)NCC(=O)N[C@@H](CCCNCc2ccc(S(=O)(=O)N3CCN(c4ncccn4)CC3)cc2)C(=O)N[C@@H](CC(=O)O)C(=O)N[C@H](C)C(=O)N[C@@H](CC(=O)O)C(=O)NCC(=O)N[C@H](CO)C(=O)N[C@@H]([C@H](C)CC(=O)O)C(=O)N[C@@H](CC(=O)c2ccccc2N)C(=O)O[C@@H]1C`, the MIC stood at 3.13 µg/mL (≈ 1.63 µM) with Enterococcus faecium [8]; 12.5 µg/mL (≈ 6.5 µM) against Enterococcus faecium [9]; 3.13 µg/mL (≈ 1.63 µM) against Enterococcus faecalis [10]; 6.25 µg/mL (≈ 3.25 µM) in the data set with Enterococcus faecalis [11]; 1.56 µg/mL (≈ 0.811 µM) against Staphylococcus aureus [12]; 0.78 µg/mL (≈ 0.406 µM) in the data set on Staphylococcus aureus [13]. Also, the MIC in the data set with Staphylococcus aureus [14] came to 1.56 µg/mL (≈ 0.811 µM); in the data set with Staphylococcus aureus [15], 0.39 µg/mL (≈ 0.203 µM).

As for `CCCCCCCCCC(=O)N[C@@H](Cc1c[nH]c2ccccc12)C(=O)N[C@H](CC(N)=O)C(=O)N[C@@H](CC(=O)O)C(=O)N[C@@H]1C(=O)NCC(=O)N[C@@H](CCCN)C(=O)N[C@@H](CC(=O)O)C(=O)N[C@H](C)C(=O)N[C@@H](CC(=O)O)C(=O)NCC(=O)N[C@H](CO)C(=O)N[C@@H]([C@H](C)CC(=O)O)C(=O)N[C@@H](CC(=O)c2ccccc2N)C(=O)O[C@@H]1C`, the MIC with Enterococcus faecium [16] was found to be 1.56 µg/mL (≈ 0.963 µM); in the data set on Enterococcus faecalis [17] it was 1.56 µg/mL (≈ 0.963 µM); in the data set on Enterococcus faecalis [18], 3.13 µg/mL (≈ 1.93 µM); against Staphylococcus aureus [19], 0.78 µg/mL (≈ 0.481 µM); with Staphylococcus aureus [20], 0.78 µg/mL (≈ 0.481 µM); in the data set with Enterococcus faecium [21], 1.56 µg/mL (≈ 0.963 µM).
